Where two headings read alike, the source gives them in different places. One block for each molecule: values may come before it.
Key:
hOAT1 [1] = target: T1, hOAT1 (Homo sapiens, UniProt Q4U2R8); assay: Fluorescent transport assay: accumulation of fluorescent organic anions in CHO^hOAT vs CHO^pIRES cells; conditions: 10 μM fluorescent anion, 10 min, room temperature
T1 sequence (Q4U2R8 1-550 isoform Q4U2R8-2): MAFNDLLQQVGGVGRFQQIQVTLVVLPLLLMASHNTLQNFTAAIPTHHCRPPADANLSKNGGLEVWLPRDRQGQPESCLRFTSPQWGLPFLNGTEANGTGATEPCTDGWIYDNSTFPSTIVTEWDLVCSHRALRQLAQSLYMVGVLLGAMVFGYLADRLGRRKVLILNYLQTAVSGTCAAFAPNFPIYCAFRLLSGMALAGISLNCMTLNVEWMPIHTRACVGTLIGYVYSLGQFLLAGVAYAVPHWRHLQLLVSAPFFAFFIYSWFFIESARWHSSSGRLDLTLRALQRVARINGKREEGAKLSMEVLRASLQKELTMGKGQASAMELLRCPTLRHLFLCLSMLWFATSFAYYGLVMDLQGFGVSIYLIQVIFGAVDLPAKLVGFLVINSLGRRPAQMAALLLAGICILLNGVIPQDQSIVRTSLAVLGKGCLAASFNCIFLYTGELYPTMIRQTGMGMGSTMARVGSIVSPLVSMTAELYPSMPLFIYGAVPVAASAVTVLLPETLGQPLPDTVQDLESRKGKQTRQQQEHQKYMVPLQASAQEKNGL

hOAT1 [2] = target: T1, hOAT1; conditions: for Vmax of hOAT1-specific transport / Km: room temperature; for Km: read-out: Km of hOAT1-specific transport
Description: First, a time-course of hOAT1-specific uptake of 6-CFL at various concentrations ranging from 0.31 to 20 μM was determined.
Kinetics of 6-CFL transport mediated by hOAT1. (a) Time course of hOAT1-specific uptake of 6-CFL. CHO^pIRES and CHO^hOAT cells in 96-well plates were incubated at room temperature with 6-CFL at concentrations ranging from 0.31 to 20 μM. At specific time points, the uptake was terminated by washing the cells with ice-cold PBS. After cell lysis, the intracellular fluorescence was determined and the net hOAT1-specific uptake was calculated after the subtraction of non-specific background uptake into CHO^pIRES cells determined under the identical conditions. […] (b) Saturation curve of the hOAT1-specific uptake of 6-CFL at 4-min time points. Km and Vmax values were estimated from the double-reciprocal plot (inset).

hOAT1 [3] = target: T1, hOAT1; assay: Fluorescence-based inhibition assay: inhibition of 6-CFL uptake into CHO^hOAT cells; type: cell-based; set-up: expressed in transfected cells; vector pIRESneo
hOAT1 [4] = target: T1, hOAT1; assay: Transport kinetics with the radioactive substrates in CHO^hOAT cells; type: cell-based; set-up: expressed in transfected cells; vector pIRESneo; conditions: radiolabeled substrates, 3 min at 37° C, mean ± standard error, three to five experiments
Description: The assays were carried out in 12-well plates with nearly confluent cells seeded 48 hours prior to each experiment. Immediately before the experiment, the cells were washed with PBS pre-warmed to 37° C. Pre-warmed Waymouth buffer ([…]) containing radiolabeled substrate at various concentrations was added to the cells and incubated for 3 min at 37° C. At the end of incubation, the cells were washed 3-times with ice-cold PBS (2 ml/well) and lysed directly on the plate in the presence of 0.4% Triton X-100 (0.5 ml/well) for at least 20 min. Subsequently, the wells were washed with an additional 0.5 ml of the detergent, the lysate and wash were combined, and radioactivity in each sample was determined after adding 6 ml of scintillation fluid (Beckman Instruments, Fullerton, Calif.). Km values were estimated by the linear regression from double reciprocal plots using Enzyme Kinetics software (ChemSW, Fairfield, Calif.).

[5] = 4-min endpoints, double reciprocal plot

Structure (SMILES): O=C(O)c1ccc2c(c1)C(=O)OC21c2ccc(O)cc2Oc2cc(O)ccc21 [5-CFL, 5-carboxyfluorescein]
hOAT1-mediated transport / accumulation (in words) (hOAT1 [1]; CHO^hOAT and CHO^pIRES cells): accumulated at very low levels both in CHO^hOAT and CHO^pIRES cells

Structure (SMILES): O=C(O)c1ccc2c(c1)C1(OC2=O)c2ccc(O)cc2Oc2cc(O)ccc21 [6-CFL, 6-carboxyfluorescein]
transport efficiency (Vmax/Km ratio) (hOAT1 [2]): comparable to that of PAH
Vmax of hOAT1-specific transport (hOAT1 [2]; 2-min endpoints): 19.7 pmol/10^6 cells·min
Vmax of hOAT1-specific transport (hOAT1 [2]; [5]): 17.8 pmol/10^6 cells·min
Km (hOAT1 [2]; 2-min endpoints): 3.95 µM
Km (hOAT1 [2]; [5]): 3.93 µM
accumulation in CHO^hOAT cells relative to control CHO^pIRES cells (hOAT1 [1]): approximately 15 fold

inhibition of 6-CFL transport (in words) (hOAT1 [3]): inhibited the transport of 6-CFL
Structure (SMILES): CC1=C(C(=O)O)N2C(=O)[C@@H](NC(=O)[C@H](N)C3=CCC=CC3)[C@H]2SC1 [Cephradine]

inhibition of 6-CFL transport (in words) (hOAT1 [3]): inhibited the transport of 6-CFL
Structure (SMILES): Nc1ccn(C[C@@H](CO)OCP(=O)(O)O)c(=O)n1 [Cidofovir, (S)-1-(3-hydroxy-2-phosphonylmethoxypropyl)cytosine]

inhibition of 6-CFL transport (in words) (hOAT1 [3]): inhibited the transport of 6-CFL
Km (hOAT1 [4]): 309 ± 106 µM
Structure (SMILES): Nc1ccn(C[C@H]2COP(=O)(O)CO2)c(=O)n1 [Cyclic prodrug of cidofovir, [((S)-1-2-hydroxy-2-oxo-1,4,2-dioxaphosphorinan-5-yl)methyl]cytosine]

Structure (SMILES): Nc1ncnc2c1ncn2CCOCP(=O)(O)O [Adefovir, 9-(2-phosphonylmethoxyethyl)adenine]
inhibition of 6-CFL transport (in words) (hOAT1 [3]): inhibited the transport of 6-CFL
Km (hOAT1 [4]): 23.8 ± 4.2 µM

inhibition of 6-CFL transport (in words) (hOAT1 [3]): inhibited the transport of 6-CFL
Structure (SMILES): CC(C(=O)O)c1cccc(C(=O)c2ccccc2)c1 (centres unmarked) [Ketoprofen]

From patent US6479231B1, “Fluorescence-based assay for the interaction of small molecules with the human renal organic anion transporter 1 (hOAT1)” (Gilead Sciences, Inc., priority 1999, dated 2002)
